Test results published in PMC10281575, “PfCRT mutations conferring piperaquine resistance in falciparum malaria shape the kinetics of quinoline drug binding and transport” (PLOS Pathogens, 2023).
Values joined by “and” are separate entries in the source; they are usually repeats but may differ in a detail not shown here. Equal values may be shown once. Read-outs that look alike come from different tables or passages of the source.

Target: T1, PfCRT^Dd2 (Plasmodium falciparum, UniProt Q8IBZ9, A220S/I356T/K76T/M74I/N326S/N75E/Q271E/R371I)
T1 sequence (Q8IBZ9 1-424 M74I/N75E/K76T/A220S/Q271E/N326S/I356T/R371I): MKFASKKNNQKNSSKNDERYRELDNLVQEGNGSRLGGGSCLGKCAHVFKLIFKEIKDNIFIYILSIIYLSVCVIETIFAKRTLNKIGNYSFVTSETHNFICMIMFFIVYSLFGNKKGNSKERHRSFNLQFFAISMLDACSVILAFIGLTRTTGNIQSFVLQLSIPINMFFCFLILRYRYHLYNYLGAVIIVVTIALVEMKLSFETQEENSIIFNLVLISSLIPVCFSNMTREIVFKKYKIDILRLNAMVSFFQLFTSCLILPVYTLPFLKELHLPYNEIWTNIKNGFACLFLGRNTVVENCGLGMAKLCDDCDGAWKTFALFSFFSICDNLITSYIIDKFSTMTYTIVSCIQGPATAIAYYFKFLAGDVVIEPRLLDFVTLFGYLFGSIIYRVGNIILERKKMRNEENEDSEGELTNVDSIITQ
Test: Competition kinetics of drug transport (radiolabeled substrate plus cold inhibitor), PfCRT^Dd2-expressing oocytes
Format: cell-based
Parameters: expressed in transfected cells; host or cells: Xenopus laevis oocytes injected with in vitro transcribed RNA (pSP64T)
Conditions: for PfCRTDd2-mediated PPQ transport 500 µM PPQ: single replicates; for Vmax, maximal velocity of drug transport: global fit; for β, partiality factor: factor on transport of the labeled drug by the other drug
Method: The experimental procedure and the data analysis were as described above.
The difference between the two models lies in the value of α, a parameter describing how much the affinity for the substrate changes when the inhibitor is already bound, and vice versa. […] The resulting Vmax,app values and the Vmax,app/KM,app ratios were plotted as a function of the inhibitor concentration (Fig 5A).
Drug transport assays were performed as previously described. Briefly, measurements of radiolabeled drug uptake were made over 1 h, unless otherwise specified. […] Where specified, one or more unlabeled drugs were also present at the indicated concentrations. […] The uptake assays were terminated by removing the oocytes from the reaction medium and washing them three times with 2 mL of ice-cold ND96 buffer. Each oocyte was transferred to a separate scintillation vial and lysed by the addition of 200 μL of a 5% SDS solution. The radioactivity in the sample was measured using a liquid scintillation analyser Tri-Carb 4910 TR (PerkinElmer). Water-injected oocytes were analyzed in parallel as a negative control. The buffer from each condition was measured in duplicate in parallel to each experiment to transform counts per minute into pmol of drug. Drug uptake attributable to PfCRT was determined by subtracting the background uptake from water-injected oocytes from that of PfCRT-expressing oocytes. In all cases, at least three independent experiments were performed on oocytes from different frogs, and for each condition in an experiment, measurements were made from 10 oocytes per treatment.
The following equations were adopted from Segel (1993), and the reader is referred to that text for the assumptions made in the author’s approach in the derivation of each equation [31]. The concentration of substrate is denoted as [S1] and the concentration of the inhibiting substrate is denoted as [S2]. KS1 and KS2 are the dissociation constants for the respective substrate-protein complexes.
Analyses of the kinetic data were performed using SigmaPlot version 13.0 and Python. The drug competition models were globally fit to the kinetic data using the least-squares method and ranked according to their corrected Akaike information criterion difference (ΔAICC) and their Akaike weight, using Python. The two top-ranked models were compared using an F-test.
This factor reflects how much the affinity of the transporter for one drug changes when the other drug is already bound in the protein cavity. In the former model, α > 0 and α ≠ 1. In the latter model, it could be thought of as if α = 1. Because of this, discriminating between the two models also means determining the value of α. In Mixed-type (Partial) inhibition, the apparent maximal velocity (Vmax,app) is given by Eq 22, Vmax,app=Vmax(1+β[S2]/αKS2)/(1+[S2]/αKS2) (Eq 22)
Vmax,app is the maximal rate of substrate transport at a certain inhibitor concentration. The half-maximal inhibitory concentration is given by the term in the denominator different from [S2], which in this case is αKS2. This means that by plotting Vmax,app as a function of [S2], the value of αKS2 can be derived after fitting the curve to Eq 23.
The half-maximal inhibitory concentration derived from this hyperbolic equation is equal to KS2. By plotting Vmax,app/KM,app as a function of [S2], one can derive KS2 after fitting the curve to Eq 25. The value of α can then be calculated dividing αKS2 by KS2.

With `Clc1ccc2c(N3CCN(CCCN4CCN(c5ccnc6cc(Cl)ccc56)CC4)CC3)ccnc2c1` [PPQ, piperaquine] the “PfCRTDd2-mediated PPQ transport 500 µM PPQ” value (50 µM CQ) was 89.07 pmol oocyte-1 h-1 and 87.88 pmol oocyte-1 h-1 and 107.53 pmol oocyte-1 h-1, the “PfCRTDd2-mediated PPQ transport 500 µM PPQ” value (125 µM CQ) was 90.95 pmol oocyte-1 h-1 and 93.39 pmol oocyte-1 h-1 and 84.66 pmol oocyte-1 h-1 and the “PfCRTDd2-mediated PPQ transport 500 µM PPQ” value (200 µM CQ) was 77.82 pmol oocyte-1 h-1 and 87.40 pmol oocyte-1 h-1 and 96.04 pmol oocyte-1 h-1. The “PfCRTDd2-mediated PPQ transport 500 µM PPQ” value (400 µM CQ) was 65.21 pmol oocyte-1 h-1 and 77.83 pmol oocyte-1 h-1 and 82.19 pmol oocyte-1 h-1, the “v / (Vmax - v)” value (1/[PPQ] 0.002000 µM-1) was 0.5629 and the “v / (Vmax - v)” value (1/[PPQ] 0.002857 µM-1) was 0.5805. For the same molecule, the “v / (Vmax - v)” value (1/[PPQ] 0.005000 µM-1) was 0.7051, the “v / (Vmax - v)” value (1/[PPQ] 0.008000 µM-1) was 0.9675 and the “v / (Vmax - v)” value (1/[PPQ] 0.020000 µM-1) was 1.1790. For the same molecule, the “most plausible inhibition model” value (16 models, ΔAICC, Akaike weight, F-test, label = cold inhibitor of the other drug's transport) was “partial noncompetitive inhibition”, the “Vmax, maximal velocity of drug transport” value (Mixed (Partial) model, drug as radiolabeled substrate) was 130 ± 3 pmol oocyte^-1 h^-1 and the Kd (Mixed (Partial) model, drug as cold inhibitor, read-out: KS, dissociation constant for the PfCRT-substrate complex) was 210 ± 50 µM. The Kd (Mixed (Partial) model, drug as radiolabeled substrate, read-out: KS, dissociation constant for the PfCRT-substrate complex) was 125 ± 9 µM, the “β, partiality factor” value (Mixed (Partial) model) was 0.63 ± 0.08 and the “α, KS interaction factor” value (Mixed (Partial) model, label = radiolabeled substrate, other drug cold inhibitor) was 1.2 ± 0.3. The “Vmax, maximal velocity of drug transport” value (Noncompetitive (Partial) model, drug as radiolabeled substrate, other drug as cold inhibitor) was 131 pmol oocyte^-1 h^-1 and 131 ± 2 pmol oocyte^-1 h^-1, the Kd (Noncompetitive (Partial) model, drug as cold inhibitor, read-out: KS, dissociation constant for the PfCRT-substrate complex) was 201 µM and 200 µM and the Kd (Noncompetitive (Partial) model, drug as radiolabeled substrate, read-out: KS, dissociation constant for the PfCRT-substrate complex) was 130 ± 6 µM. The “β, partiality factor” value (Noncompetitive (Partial) model) was 0.60 and 0.60 ± 0.06, the “KMapp ([3H]PPQ + CQ)” value ([CQ] 0 µM) was 122.92 µM and the “Vmaxapp ([3H]PPQ + CQ)” value ([CQ] 0 µM) was 130.71 pmol oocyte-1 h-1. The “Vmaxapp/KMapp ([3H]PPQ + CQ)” value ([CQ] 0 µM) was 1.0634 h⁻¹, the “KMapp ([3H]PPQ + CQ)” value ([CQ] 25 µM) was 130.31 µM and the “Vmaxapp ([3H]PPQ + CQ)” value ([CQ] 25 µM) was 125.79 pmol oocyte-1 h-1. The “Vmaxapp/KMapp ([3H]PPQ + CQ)” value ([CQ] 25 µM) was 0.9653 h⁻¹, the “KMapp ([3H]PPQ + CQ)” value ([CQ] 50 µM) was 129.68 µM and the “Vmaxapp ([3H]PPQ + CQ)” value ([CQ] 50 µM) was 119.39 pmol oocyte-1 h-1. For the same molecule, the “Vmaxapp/KMapp ([3H]PPQ + CQ)” value ([CQ] 50 µM) was 0.9206 h⁻¹, the “KMapp ([3H]PPQ + CQ)” value ([CQ] 125 µM) was 128.38 µM and the “Vmaxapp ([3H]PPQ + CQ)” value ([CQ] 125 µM) was 113.74 pmol oocyte-1 h-1. The “Vmaxapp/KMapp ([3H]PPQ + CQ)” value ([CQ] 125 µM) was 0.8860 h⁻¹, the “KMapp ([3H]PPQ + CQ)” value ([CQ] 200 µM) was 133.02 µM and the “Vmaxapp ([3H]PPQ + CQ)” value ([CQ] 200 µM) was 109.91 pmol oocyte-1 h-1. For the same molecule, the “Vmaxapp/KMapp ([3H]PPQ + CQ)” value ([CQ] 200 µM) was 0.8262 h⁻¹, the “KMapp ([3H]PPQ + CQ)” value ([CQ] 400 µM) was 140.80 µM and the “Vmaxapp ([3H]PPQ + CQ)” value ([CQ] 400 µM) was 99.57 pmol oocyte-1 h-1. For the same molecule, the “Vmaxapp/KMapp ([3H]PPQ + CQ)” value ([CQ] 400 µM) was 0.7072 h⁻¹, the Kd (secondary plot, half-maximum inhibitory concentration of Vmax,app versus inhibitor concentration, read-out: αKS, dissociation constant between the drug and the PfCRT complex with the other drug) was 205 ± 50 µM and the “α (αKS divided by KS)” value (secondary plots, label = prebound drug) was 0.9 ± 0.7.
